The values below come from PMC10266789 (The Journal of Clinical Investigation, 2023).

A short description of data set [1]: Host cell cytotoxicity, Akata. Type of data set: cell-based. The conditions noted are these: Akata cells (Burkitt lymphoma cell line); human Akata; Epstein-Barr assay. How it is done: The Akata Burkitt lymphoma cell line is permissive for EBV lytic reactivation through activation of the B cell receptor ([52]). As expected, 24 hours after receptor engagement with anti-IgG, 30% of Akata cells induced surface expression of the late EBV gene gp350, which serves as a proxy for cells that are replicating viral DNA and forming new virions (Figure 3A).

For the next data set, the target named is T1, recombinant human SIRT2 (Homo sapiens, UniProt Q8IXJ6).
T1 sequence (Q8IXJ6 39-352 limits assumed): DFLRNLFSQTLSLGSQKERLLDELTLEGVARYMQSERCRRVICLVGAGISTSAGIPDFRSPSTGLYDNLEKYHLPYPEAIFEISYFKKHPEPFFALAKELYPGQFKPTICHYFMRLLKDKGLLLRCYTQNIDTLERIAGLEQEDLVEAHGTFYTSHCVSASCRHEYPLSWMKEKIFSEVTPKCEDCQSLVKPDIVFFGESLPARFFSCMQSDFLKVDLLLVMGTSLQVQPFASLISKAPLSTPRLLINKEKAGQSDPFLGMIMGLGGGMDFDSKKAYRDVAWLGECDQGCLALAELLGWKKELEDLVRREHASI
Description: SIRT2 thermal stability (thermal shift) assay. Format: binding. The protocol:
SIRT2 underwent thermal denaturation with a midpoint transition temperature (Tm) of approximately 48°C.
Thermal melt data were collected using custom instrumentation (Fluorescence Innovations), with either 405 nm or 532 nm laser excitation and fluorescence lifetime emission to measure total well fluorescence and fluorescence lifetime as a function of temperature. Data were treated as previously described ([37]) to determine the midpoint transition temperature, Tm.

The nature of data set [2]: Mouse pharmacokinetics, plasma. The conditions noted are these: single 50 mg/kg p.o., female BALB/c mice. Format: in vivo. The protocol:
The pharmacokinetics study used fed female BALB/c mice (22 g, n = 3 per time point). Blood samples (~30 μL via saphenous vein puncture) were taken at 0.25, 0.5, 1, 2, 4, 8, and 24 hours. […] The lower limit of quantification was 10 ng/mL. An aliquot of 10 μL plasma sample was mixed with 10 μL terfenadine solvent plus 2 μL methanol. An additional 200 μL of terfenadine solvent was added, and the resulting mixture was vortexed for 1 minute and centrifuged at 1,500g for 15 minutes. The supernatant was diluted 10× with methanol/water (1:1 vol/vol with 0.1% formic acid), and 2 μL aliquots were analyzed using a QTRAP 4000 LC-MS/MS System (Sciex) with a C18 column (Kinetex). Pharmacokinetic parameters were determined with the noncompartmental analysis tool in WinNonlin (Certara).
Plasma samples from groups
Mean +/- SD is presented.

The nature of data set [3]: Residual drug levels in MRC-5 cells and supernatant after washout, mass spectrometry. Format: in vitro ADME, human. The protocol:
Supplemental Figure 8. […] (A) Uninfected cells
After 24h, supernatant was collected, monolayers were washed 3x to remove drug and cells were replenished with drug-free media.
Supernatants and cells were then assayed for residual drug levels at 2, 24 or 72h post-release. (B-C) Supernatant and cell-associated drug concentrations were determined by mass spectrometry. (D) […]
monolayer of MRC-5 cells. Sampling of the supernatant was conducted after a 24h incubation at 37°C, followed by 3X washes with PBS, collection of the final wash, and replenishment of drug-free medium to the dishes. Supernatant samples were then collected at 24 and 72h post drug-removal. […]
concentrations as determined by mass spectrometry. Mean +/- SD is shown (n=3).
(1 picture or pasted object on this page, not shown here)

Data set [4] has as its system Epstein-Barr virus (EBV; strain Akata). The data set can be described thus: microbe, parasite or virus in culture. Particulars: human gammaherpesvirus 4, Akata, read-out: IC50, Epstein-Barr.
The test system of data set [5] is Influenza A (strain A/California/07/2009).
The nature of data set [6]: Host cell cytotoxicity, PHH. Particulars: human.
In a further data set the test system is HCMV TB40/E. Description: Mouse gelfoam-fibroblast model of HCMV infection. The conditions noted are these: day 11; TCID50; FLS-359 50 mg/kg p.o. b.i.d.; valganciclovir 50 mg/kg p.o. daily; P < 0.03. Format: in vivo, CIEA NOG mice.
The mark [7] stands for this setting: 72 hours after drug removal, treated 24 h with 5 µM.

SMILES strings stand for the structures.

For the compound `Cc1cn(-c2ccc3c(c2)CN(c2ncc(Cc4ccc(-n5cccn5)cc4)s2)CC3)c(C)n1` [FLS-359, 7-(2,4-dimethyl-1H-imidazol-1-yl)-2-(5-{[4-(1H-pyrazol-1-yl)phenyl]methyl}-1,3-thiazol-2-yl)-1,2,3,4-tetrahydroisoquinoline], the CC50 is > 100 µM in data set [1] and > 10 µM in data set [6]. For the same compound, the results for the “increase of SIRT2 Tm” value at recombinant human SIRT2 (6.25 μM) and on recombinant human SIRT2 (12.5 μM) were 1.4 °C and 2.0 °C, respectively. Further, the half-life in data set [2] (female, BALB/c, mouse, in vivo, po, 50 mg/kg, read-out: plasma half-life (T1/2) (converted)) was 5.8 ± 1.4 h. Further, the Cmax in data set [2] (female, BALB/c, mouse, plasma, po, 50 mg/kg) is 89.3 ± 11 µM; in data set [2] (plasma, 50 mg/kg), 89 µM. The same compound yielded an AUC(0-inf) in data set [2] (mouse, plasma, po) of 713 µM·h. Moreover, in data set [2] (mouse, plasma, po), the Tmax was 2 h. Further, in data set [3] (5 µM in medium, no cells), the “removal of drug from culture dishes without cells” value is “efficiently removed by washing”. The “drug level in cells” value in data set [3] (setting [7]) is ~ 5 μM. Besides, in data set [3] (setting [7]), the “drug level in supernatant” value is listed as ~ 0.4 μM. In addition, in data set [4], the IC50 worked out at 3.8 µM. Also, the “SI CC50/IC50” value in data set [5] (Influenza A/human dNHBE) is recorded as >83.3. The “IC90, Influenza A (column headed IC50, footnote C: IC90)” value in data set [5] (human dNHBE) was 1.2^C μM. For the same compound, the “virus production in gelfoam implants” value in the data set with HCMV TB40/E is recorded as “significantly reduced virus production”.
